Experimental data from ChEMBL document CHEMBL4800728, “Data for DCP probe JNJ-54119936” (2021).

Key:
[1] = target: Nuclear receptor ROR-beta (Homo sapiens) (UniProt Q92753); experiment: ThermoFluor Binding Assay (RORB)
[2] = target: Nuclear receptor ROR-alpha (Homo sapiens) (UniProt P35398); experiment: ThermoFluor Binding Assay (RORA)
Sequence of Nuclear receptor ROR-alpha (Homo sapiens) (P35398 whole entry): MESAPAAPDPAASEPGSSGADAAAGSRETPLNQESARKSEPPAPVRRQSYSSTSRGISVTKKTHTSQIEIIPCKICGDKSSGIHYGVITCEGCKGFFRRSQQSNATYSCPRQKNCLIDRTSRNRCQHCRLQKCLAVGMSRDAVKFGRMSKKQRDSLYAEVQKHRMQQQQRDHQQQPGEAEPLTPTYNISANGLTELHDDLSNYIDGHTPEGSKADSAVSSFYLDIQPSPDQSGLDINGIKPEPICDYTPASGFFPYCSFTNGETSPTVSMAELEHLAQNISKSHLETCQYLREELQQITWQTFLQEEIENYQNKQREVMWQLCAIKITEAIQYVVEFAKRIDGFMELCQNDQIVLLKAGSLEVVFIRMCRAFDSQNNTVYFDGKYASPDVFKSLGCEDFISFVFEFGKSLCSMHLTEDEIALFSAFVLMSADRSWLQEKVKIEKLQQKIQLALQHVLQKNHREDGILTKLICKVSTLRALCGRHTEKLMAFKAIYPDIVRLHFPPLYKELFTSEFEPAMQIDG

Sequence of Nuclear receptor ROR-beta (Homo sapiens) (Q92753 whole entry): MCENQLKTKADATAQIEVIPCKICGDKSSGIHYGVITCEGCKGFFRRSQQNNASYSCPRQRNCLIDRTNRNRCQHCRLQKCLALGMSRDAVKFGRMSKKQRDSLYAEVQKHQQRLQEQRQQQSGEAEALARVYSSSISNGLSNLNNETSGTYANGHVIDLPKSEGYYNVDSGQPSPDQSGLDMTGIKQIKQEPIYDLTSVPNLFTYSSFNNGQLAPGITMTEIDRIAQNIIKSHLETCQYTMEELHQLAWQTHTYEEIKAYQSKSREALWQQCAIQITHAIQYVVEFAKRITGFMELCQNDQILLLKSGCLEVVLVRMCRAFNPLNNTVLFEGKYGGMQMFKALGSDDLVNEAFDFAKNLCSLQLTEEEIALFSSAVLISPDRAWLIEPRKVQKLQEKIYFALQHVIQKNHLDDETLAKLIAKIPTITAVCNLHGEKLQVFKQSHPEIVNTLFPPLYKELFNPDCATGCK

SMILES: COc1nc2ccc([C@@](O)(c3ccc(Cl)cc3)c3cncn3C)cc2c(Cl)c1Cc1ccc(-n2cccn2)cc1
- qKD [1]: 40 µM
- qKD [2]: 16.8 µM
